Drawing on ChEMBL document CHEMBL3046485, “Photodynamic activities of protoporphyrin IX and its dopamine conjugate against cancer and bacterial cell viability” (2012), this text covers Activity and MIC for eight compounds.

As a reminder, the MIC is the least concentration at which growth counts as inhibited. Low values mean inhibition by little substance, high ones a need for much substance.

Assay [1] relates to Bacillus subtilis. Description: Antibacterial activity against Bacillus subtilis ATCC 6633 at 16 ug/ml after 24 hr by two-fold serial dilution method. Type of assay: functional, organism-based.
The subject of assay [2] is U-87MG ATCC. In words: Antiproliferative activity against Homo sapiens (human) U87 cells at 5 uM compound photoirradiated for 20 min followed by 24 hr incubation by WST-1 assay. Type of assay: functional, cell-based. In general terms: Tetrazolium dyes change colour on reduction, which living cells bring about.
Assay [3] deals with SH-SY5Y. Description: Cytotoxicity against Homo sapiens (human) SH-SY5Y cells at 1 to 30 uM after 24 hr by LDH release assay. The format is functional, cell-based. In general terms: LDH leaks from cells whose membrane has failed.
In assay [4] the test system is SH-SY5Y. Description: Cytotoxicity against Homo sapiens (human) SH-SY5Y cells compound photoirradiated for 20 min followed by 24 hr incubation by LDH release assay. Type of assay: functional, cell-based.
The test system of assay [5] is U-87MG ATCC. In words: Cytotoxicity against Homo sapiens (human) U87 cells at 1 to 30 uM after 24 hr by LDH release assay. Type of assay: functional, cell-based.
Assay [6] has as its system HeLa. In words: Cytotoxicity against Homo sapiens (human) HeLa cells compound photoirradiated for 20 min followed by 24 hr incubation by LDH release assay. Type of assay: functional, cell-based.
The subject of assay [7] is HeLa. Description: Antiproliferative activity against Homo sapiens (human) HeLa cells at 5 uM compound photoirradiated for 20 min followed by 24 hr incubation by WST-1 assay. Type of assay: functional, cell-based.
Assay [8] has as its system U-87MG ATCC. In words: Cytotoxicity against Homo sapiens (human) U87 cells at 30 uM compound photoirradiated for 20 min followed by 24 hr incubation by LDH release assay. The format is functional, cell-based.
In assay [9] the test system is Escherichia coli. In words: Antibacterial activity against Escherichia coli ATCC 25922 after 24 hr by two-fold serial dilution method. Type of assay: functional. The settings on record: ATCC 25922, 24 h.
Assay [10] relates to HeLa. Description: Antiproliferative activity against Homo sapiens (human) HeLa cells at 5 uM after 24 hr by WST-1 assay. The format is functional, cell-based.
For assay [11], the system named is Bacillus subtilis. In words: Antibacterial activity against Bacillus subtilis ATCC 6633 at 16 ug/ml compound photoirradiated for 20 min followed by 24 hr incubation by two-fold serial dilution method. The format is functional, organism-based.
The test system of assay [12] is Escherichia coli. Description: Antibacterial activity against Escherichia coli ATCC 25922 compound photoirradiated for 20 min followed by 24 hr incubation by two-fold serial dilution method. The format is functional. The following applies: ATCC 25922, light or radiation study.
Assay [13] deals with Pseudomonas aeruginosa. Description: Antibacterial activity against Pseudomonas aeruginosa ATCC 27853 compound photoirradiated for 20 min followed by 24 hr incubation by two-fold serial dilution method. The settings on record: ATCC 27853, light or radiation study. Type of assay: functional.
The test system of assay [14] is Pseudomonas aeruginosa. Description: Antibacterial activity against Pseudomonas aeruginosa ATCC 27853 after 24 hr by two-fold serial dilution method. The format is functional. The following applies: ATCC 27853, 24 h.
The subject of assay [15] is U-87MG ATCC. In words: Antiproliferative activity against Homo sapiens (human) U87 cells at 5 uM after 24 hr by WST-1 assay. Type of assay: functional, cell-based.
The test system of assay [16] is SH-SY5Y. Description: Cytotoxicity against Homo sapiens (human) SH-SY5Y cells at 30 uM compound photoirradiated for 20 min followed by 24 hr incubation by LDH release assay. Type of assay: functional, cell-based.
The subject of assay [17] is Pseudomonas aeruginosa. Description: Bacteriostatic activity against Pseudomonas aeruginosa ATCC 27853 after 24 hr by two-fold serial dilution method. Type of assay: functional, organism-based.
Assay [18] has as its system Bacillus subtilis. In words: Antibacterial activity against Bacillus subtilis ATCC 6633 compound photoirradiated for 20 min followed by 24 hr incubation by two-fold serial dilution method. Type of assay: functional. The settings on record: ATCC 6633, light or radiation study.
The subject of assay [19] is HeLa. In words: Cytotoxicity against Homo sapiens (human) HeLa cells at 30 uM compound photoirradiated for 20 min followed by 24 hr incubation by LDH release assay. The format is functional, cell-based.
Assay [20] concerns U-87MG ATCC. Description: Cytotoxicity against Homo sapiens (human) U87 cells compound photoirradiated for 20 min followed by 24 hr incubation by LDH release assay. The format is functional, cell-based.
Assay [21] deals with HeLa. In words: Cytotoxicity against Homo sapiens (human) HeLa cells compound at 1 to 30 uM after 24 hr by LDH release assay. The format is functional, cell-based.
Assay [22] relates to SH-SY5Y. In words: Antiproliferative activity against Homo sapiens (human) SH-SY5Y cells at 5 uM after 24 hr by WST-1 assay. The format is functional, cell-based.
For assay [23], the system named is Bacillus subtilis. In words: Antibacterial activity against Bacillus subtilis ATCC 6633 after 24 hr by two-fold serial dilution method. Type of assay: functional. The following applies: ATCC 6633, 24 h.
Assay [24] concerns SH-SY5Y. Description: Antiproliferative activity against Homo sapiens (human) SH-SY5Y cells at 5 uM compound photoirradiated for 20 min followed by 24 hr incubation by WST-1 assay. The format is functional, cell-based.

The structures appear in SMILES notation. In brackets after ≈: the same amount, converted by molar mass. Activity calls are given as the source filed them. No cut-off for these calls is given here.

Consider `C=CC1=C(C)c2cc3[nH]c(cc4nc(cc5[nH]c(cc1n2)c(C)c5CCC(=O)O)C(CCC(=O)O)=C4C)c(C)c3C=C` [PROTOPORPHYRIN], for which the result with Bacillus subtilis [1], in the assay with U-87MG ATCC [2], in the assay with HeLa [7], in the assay with Pseudomonas aeruginosa [17] and in the assay on SH-SY5Y [24] was Active. Moreover, the result with SH-SY5Y [3], with U-87MG ATCC [5], with U-87MG ATCC [8], with HeLa [10], in the assay with Bacillus subtilis [11] and in the assay on U-87MG ATCC [15] was inactive. For the same compound, the result with SH-SY5Y [16], in the assay with HeLa [19], in the assay with HeLa [21] and with SH-SY5Y [22] was inactive. Moreover, the Activity result with SH-SY5Y [4], in the assay on HeLa [6] and with U-87MG ATCC [20] was “Dose-dependent effect” in each case. Besides, the MIC in the assay with Escherichia coli [9] was determined as 128 µg/mL (≈ 227 µM); against Escherichia coli [12] it was 128 µg/mL (≈ 227 µM); in the assay on Pseudomonas aeruginosa [13] it was 128 µg/mL (≈ 227 µM); in the assay on Pseudomonas aeruginosa [14] it was 128 µg/mL (≈ 227 µM); in the assay with Bacillus subtilis [18] it was 80 µg/mL (≈ 142 µM); in the assay with Bacillus subtilis [23], 100 µg/mL (≈ 178 µM).

For the compound `CC[C@H]1OC(=O)[C@H](C)[C@@H](O[C@H]2C[C@@](C)(OC)[C@@H](O)[C@H](C)O2)[C@H](C)[C@@H](O[C@@H]2O[C@H](C)C[C@H](N(C)C)[C@H]2O)[C@](C)(O)C[C@@H](C)C(=O)[C@H](C)[C@@H](O)[C@]1(C)O` [ERYTHROMYCIN], the MIC is 128 µg/mL (≈ 174 µM) against Escherichia coli [9], < 0.125 µg/mL in the assay with Pseudomonas aeruginosa [14] and < 0.125 µg/mL against Bacillus subtilis [23].

`CN(C)[C@@H]1C(O)=C(C(N)=O)C(=O)[C@@]2(O)C(O)=C3C(=O)c4c(O)cccc4[C@@](C)(O)[C@H]3C[C@@H]12` [TETRACYCLINE]: the minimal inhibitory concentration (MIC) against Escherichia coli [9] amounted to 2 µg/mL (≈ 4.5 µM); with Pseudomonas aeruginosa [14], 1 µg/mL (≈ 2.25 µM); against Bacillus subtilis [23], 8 µg/mL (≈ 18 µM).

In the case of `C=Cc1c(C)c2cc3[nH]c(cc4nc(cc5nc(cc1[nH]2)C(C)=C5CCC(=O)NCCc1ccc(O)c(O)c1)C(CCC(=O)NCCc1ccc(O)c(O)c1)=C4C)c(C)c3C=C`, the result in the assay with Bacillus subtilis [1], in the assay with U-87MG ATCC [2], in the assay on HeLa [7], with Pseudomonas aeruginosa [17] and in the assay with SH-SY5Y [24] was Active. For the same compound, the result in the assay on SH-SY5Y [3], in the assay on U-87MG ATCC [5], in the assay on U-87MG ATCC [8], in the assay on HeLa [10], with Bacillus subtilis [11] and with U-87MG ATCC [15] was inactive. The result in the assay with SH-SY5Y [16], in the assay on HeLa [19], with HeLa [21] and in the assay with SH-SY5Y [22] was inactive. The Activity result with SH-SY5Y [4], with HeLa [6] and in the assay with U-87MG ATCC [20] was “Dose-dependent effect” in each case. Besides, the MIC with Escherichia coli [9] was found to be 128 µg/mL (≈ 154 µM); with Escherichia coli [12], 128 µg/mL (≈ 154 µM); in the assay on Pseudomonas aeruginosa [13], 128 µg/mL (≈ 154 µM); in the assay with Pseudomonas aeruginosa [14], 128 µg/mL (≈ 154 µM); against Bacillus subtilis [18], 80 µg/mL (≈ 96 µM); with Bacillus subtilis [23], 100 µg/mL (≈ 120 µM).

Consider `CN[C@@H]1[C@H](O[C@H]2[C@H](O[C@H]3[C@H](O)[C@@H](O)[C@H](N=C(N)N)[C@@H](O)[C@@H]3N=C(N)N)O[C@@H](C)[C@]2(O)C=O)O[C@@H](CO)[C@H](O)[C@H]1O` [STREPTOMYCIN], for which the MIC was > 256 µg/mL in the assay with Escherichia coli [9], 64 µg/mL (≈ 110 µM) with Pseudomonas aeruginosa [14] and 16 µg/mL (≈ 27.5 µM) in the assay with Bacillus subtilis [23].

Regarding `NC[C@H]1O[C@H](O[C@H]2[C@H](O)[C@@H](O[C@H]3O[C@H](CO)[C@@H](O)[C@H](N)[C@H]3O)[C@H](N)C[C@@H]2N)[C@H](O)[C@@H](O)[C@@H]1O` [KANAMYCIN], the MIC in the assay on Escherichia coli [9] is 16 µg/mL (≈ 33 µM); in the assay on Pseudomonas aeruginosa [14], 2 µg/mL (≈ 4.13 µM); in the assay with Bacillus subtilis [23] it was > 256 µg/mL.

Take `CCn1cc(C(=O)O)c(=O)c2ccc(C)nc21` [NALIDIXIC ACID]: the MIC came out at 16 µg/mL (≈ 68.9 µM) against Escherichia coli [9], 2 µg/mL (≈ 8.61 µM) in the assay with Pseudomonas aeruginosa [14] and 8 µg/mL (≈ 34.4 µM) in the assay with Bacillus subtilis [23].

Consider `CC1(C)S[C@@H]2[C@H](NC(=O)[C@H](N)c3ccccc3)C(=O)N2[C@H]1C(=O)O` [AMPICILLIN], for which the figures for the MIC against Escherichia coli [9], against Pseudomonas aeruginosa [14] and in the assay on Bacillus subtilis [23] were > 256 µg/mL, 128 µg/mL (≈ 366 µM) and > 256 µg/mL, respectively.
